The values below come from patent US5874442A, “Tricyclic amides useful for inhibition of G-protein function and for treatment of proliferative disease” (Schering-Plough Corporation, priority 1996, dated 1999).

Molecules are shown by their SMILES. Structures can show the parent of a compound that is named as a salt. Where two headings read alike, the source gives them in different places. Some results are limits rather than exact numbers.

As usually defined, the IC50 is the concentration needed to halve the response being measured.

In assay [1] the test system is DLD-1 (human colon carcinoma cells). Kind of assay: In vivo anti-tumor studies, subcutaneous DLD-1 tumors in athymic nu/nu mice. On the set-up: species or system athymic nu/nu female mice. Particulars: Mus musculus, DLD-1, po, read-out: Average % Tumor Inhibition.
Protocol: Tumor bearing animals are selected and randomized when the tumors are established. Animals are treated with vehicle (β-cyclodextrin for i.p. or corn oil for p.o.) only or with a compound of the present invention in vehicle four times a day (QID) for 7 days per week for 4 weeks. The percent inhibition of tumor growth relative to vehicle controls is determined by tumor measurements.
For assay [2], the system named is SW620-BAG human colon carcinoma cells expressing an activated K-ras gene. Description: Cell mat assay, SW620-BAG tumor cells. Particulars: Mat assay, 14 d, read-out: Tumor (SW620) IC50. Format: cell-based. On the procedure:
(§1) Compound-induced colony inhibition was assayed by addition of serial dilutions of compound directly to the growth medium 24 h after tumor cell planting, and incubating cells for an additional 14 d to allow colony formation. Assays were terminated by rinsing monolayers twice with phosphate-buffered saline (PBS), fixing the monolayers with a 1% glutaraldehyde solution in PBS, then visualizing tumor cells by staining with X-Gal (Price, J., et al., Lineage analysis in the vertebrate nervous system by retrovirus-mediated gene transfer, Proc. Natl. Acad. Sci.84, 156-160(1987)). […] Both IC50 values were obtained by determining the density of tumor cells and mat cells by visual inspection and enumeration of cells per colony and the number of colonies under the microscope.
(§2) Additional assays were carried out by following essentially the same procedure as described above, but with substitution of alternative indicator tumor cell lines in place of the T24-BAG cells. The assays were conducted using either DLD-1-BAG human colon carcinoma cells expressing as activated K-ras gene or SW620-BAG human colon carcinoma cells expressing an activated K-ras gene.

The target of assay [3] is T1, farnesyl protein transferase (FPT) (Rattus norvegicus, UniProt Q02293+Q04631).
T1 construct: were partially purified from rat brain by ammonium sulfate fractionation; from tissue; host or cells: rat brain (ammonium sulfate fractionation, Q-Sepharose)
Kind of assay: In vitro enzyme assay: inhibition of farnesyl protein transferase (FPT), [3H]farnesyl transfer to Ras-CVLS. In kind it is biochemical. On the procedure: 1. In vitro enzyme assays:
Inhibition of farnesyl protein transferase and geranylgeranyl protein transferase.
Human farnesyl protein transferase was also expressed in E. coli, using cDNA clones encoding both the a and b subunits. […] Human farnesyl protein transferase was partially-purified from the soluble protein fraction of E. coli as described above. […] Two forms of val^12 -Ha-Ras protein were prepared as substrates for these enzymes, differing in their carboxy terminal sequence. One form terminated in cysteine-valine-leucine-serine (Ras-CVLS) the other in cystein-valine-leucine-leucine (Ras-CVLL). Ras-CVLS is a substrate for the farnesyl protein transferase while Ras-CVLL is a substrate for geranylgeranyl protein transferase I. The cDNAs encoding these proteins were constructed so that the proteins contain an amino-terminal extension of 6 histidine residues. Both proteins were expressed in Escherichia coli and purified using metal chelate affinity chromatography. The radiolabelled isoprenyl pyrophosphate substrates, [^3 H]farnesyl pyrophosphate and [^3 H] geranylgeranyl pyrophosphate, were purchased from DuPont/New England Nuclear.
The reaction was allowed to proceed for 30 minutes at room temperature and then stopped with 0.5 ml of 4% sodium dodecyl sulfate (SDS) followed by 0.5 ml of cold 30% TCA. Samples were allowed to sit on ice for 45 minutes and precipitated Ras protein was then collected on GF/C filter paper mats using a Brandel cell harvester. […] Percent inhibition was calculated relative to the DMSO vehicle control.

The subject of assay [4] is Ras-CVLS processing in COS cells. Kind of assay: Cell-based COS cell assay: inhibition of Ras processing (Ras-CVLS). Details: species or system monkey. The text has this: Transient expression of val^12 -Ha-Ras-CVLS and […] -Ha-Ras-CVLL in COS monkey kidney cells: Effect of farnesyl protein transferase inhibitors on Ras processing and on disordered cell growth induced by transforming Ras.
COS monkey kidney cells were transfected by electroporation with the plasmid pSV-SPORT (Gibco/BRL) containing a cDNA insert encoding either Ras-CVLS or Ras-CVLL, leading to transient overexpression of a Ras substrate for either farnesyl protein transferase or geranylgeranyl protein transferase I, respectively (see above).
Following electroporation, cells were plated into 6-well tissue culture dishes containing 1.5 ml of Dulbecco's-modified Eagle's media (GIBCO, Inc.) supplemented with 10% fetal calf serum and the appropriate farnesyl protein transferase inhibitors. After 24 hours, media was removed and fresh media containing the appropriate drugs was re-added.
48 hours after electroporation cells were examined under the microscope to monitor disordered cell growth induced by transforming Ras. Cells expressing transforming Ras become more rounded and refractile and overgrow the monolayer, reminiscent of the transformed phenotype. Cells were then photographed, washed twice with 1 ml of cold phosphate-buffered saline (PBS) and removed from the dish by scraping with a rubber policeman into 1 ml of a buffer containing 25 mM Tris, pH 8.0; 1 mM ethylenediamine tetraacetic acid; 1 mM phenylmethylsulfonyl fluoride; […]; and 0.1 mM pepstatin. Cells were lysed by homogenization and cell debris was removed by centrifugation at 2000× g for 10 min.
Cellular protein was precipitated by addition of ice-cold trichloroacetic acid and redissolved in […] of SDS-electrophoresis sample buffer. […] Proteins resolved on the gels were electroblotted onto nitrocellulose membranes for immunodetection.
After washing, membranes were incubated for one hour at room temperature with a 1:5000 dilution of secondary antibody, rabbit anti-rat lgG conjugated to horseradish peroxidase, in PBS containing 1% fetal calf serum. The presence of processed and unprocessed Ras-CVLS or Ras-CVLL was detected using a colorimetric peroxidase reagent (4-chloro-1-naphthol) as described by the manufacturer (Bio-Rad).

For assay [5], the system named is T24-BAG4 human bladder carcinoma cells expressing an activated H-ras gene. Description: Cell mat assay, T24-BAG4 tumor cells. Format: cell-based. Particulars: Mat assay, 14 d, read-out: Tumor (T-24) IC50. The protocol: as §1
Assay [6] relates to Normal human HEPM fibroblasts. Description: Cell mat assay, normal cells (cell mat). Format: cell-based. Particulars: Mat assay, 14 d, normal cells, read-out: Normal IC50. On the procedure:
as §1

For assay [7], the system named is DLD-1-BAG human colon carcinoma cells. Kind of assay: Cell mat assay, DLD-1-BAG tumor cells. Format: cell-based. Particulars: Mat assay, 14 d, read-out: Tumor (DLD-1) IC50. The protocol:
as §1, §2

The mark [8] stands for this setting: […], Experiment No. 1, 50 mg/kg p.o., QID, 7 days per week for 4 weeks.
Where [9] appears, read: […], Experiment No. 2, 10 mg/kg p.o., QID, 7 days per week for 4 weeks.
Setting [10] is: […], Experiment No. 3, 50 mg/kg p.o., QID, 7 days per week for 4 weeks.
Where [11] appears, read: […], Experiment No. 4, 10 mg/kg p.o., QID, 7 days per week for 4 weeks.
[12] abbreviates: Primates, COS, read-out: Inhibition of Ras Processing IC50, Table 3, COS cells.
Where [13] appears, read: Table 3, COS cells, read-out: Inhibition of Ras Processing IC50.

As to `O=C(Cc1cc[n+]([O-])cc1)N1CCC(=C2c3ncc(Br)cc3CCc3cc(Cl)cc(Br)c32)CC1` (racemic) [Example 7], the inhibition in vivo at 50 mg/kg in assay [1] (setting [8]) amounted to 76.5%. In addition, the inhibition in vivo at 10 mg/kg in assay [1] (setting [9]) is 35.1%.
For `NC(=O)N1CCC(CC(=O)N2CCN(C3c4ncc(Br)cc4CCc4cc(Cl)cc(Br)c43)CC2)CC1` (single isomer, unassigned) [Example 12B], in that order: 83% and 37.7%.
As for `NC(=O)N1CCC(CC(=O)N2CCC(C3c4ccc(Cl)c(Br)c4CCc4cc(Br)cnc43)CC2)CC1` (single isomer, unassigned) [Example 13], the IC50 in assay [2] (Homo sapiens, SW-620, 336 h) was above 1600 nM. In assay [1] (setting [8]), the inhibition in vivo at 50 mg/kg came to 61%. In assay [1] (setting [9]), the inhibition in vivo at 10 mg/kg stood at 7%.
Regarding `O=C(Cc1cc[n+]([O-])cc1)N1CCC(C2c3ccc(Cl)c(Br)c3CCc3cc(Br)cnc32)CC1` (single isomer, unassigned) [Example 14A · HCl salt], the IC50 in assay [3] (Table 1, Ras-CVLS substrate, 30 minutes at room temperature, read-out: FPT IC50) was below 3.1 nM.
As to `O=C(Cc1cc[n+]([O-])cc1)N1CCC(C2c3ccc(Cl)c(Br)c3CCc3cc(Br)cnc32)CC1` (single isomer, unassigned) [Example 14A], the inhibition in vivo at 50 mg/kg in assay [1] (setting [8]) was 59%. In addition, the inhibition in vivo at 10 mg/kg in assay [1] (setting [9]) worked out at 48%.
`NC(=O)N1CCC(CC(=O)N2CCC(C3c4ccc(Cl)cc4C=Cc4cc(Br)cnc43)CC2)CC1` (centres unmarked) [Example 1]: the results for the inhibition in vivo at 50 mg/kg in assay [1] (setting [8]) and in assay [1] (setting [10]) were 38.2% and 35.4%, respectively. Moreover, the inhibition in vivo at 10 mg/kg in assay [1] (setting [9]) turned out to be 17.2%; in assay [1] (setting [11]), 34%.
`NC(=O)N1CCC(CC(=O)N2CCC(C3c4ccc(Cl)cc4CCc4cc(Br)cnc43)CC2)CC1` (centres unmarked) [Example 4]: the inhibition in vivo at 50 mg/kg in assay [1] (setting [8]) and in assay [1] (setting [10]) was 41% throughout. The inhibition in vivo at 10 mg/kg in assay [1] (setting [9]) was determined as 18%; in assay [1] (setting [11]) it was 14%.
Regarding `O=C(Cc1cc[n+]([O-])cc1)N1CCN([C@H]2c3ccc(Cl)c(Br)c3CCc3cc(Br)cnc32)CC1` [Example 5 · HCl salt], in assay [4] (setting [12]), the IC50 came out at 10 nM.
`O=C(Cc1cc[n+]([O-])cc1)N1CCN([C@H]2c3ccc(Cl)c(Br)c3CCc3cc(Br)cnc32)CC1` [Example 5]: in assay [1] ([…]), the inhibition in vivo at 10 mg/kg came out at 24% and the inhibition in vivo at 50 mg/kg amounted to 38%.
In the case of `NC(=O)N1CCC(CC(=O)N2CCN([C@H]3c4ccc(Cl)c(Br)c4CCc4cc(Br)cnc43)CC2)CC1` [Example 6], in assay [1] (setting [8]), the inhibition in vivo at 50 mg/kg came out at 61.2%. Further, in assay [1] (setting [9]), the inhibition in vivo at 10 mg/kg was found to be 35.4%.
In the case of `O=C(Cc1cc[n+]([O-])cc1)N1CCC(=C2c3ncc(Br)cc3CCc3cc(Cl)cc(Br)c32)CC1` [Example 7A], the IC50 in assay [4] (setting [13]) was above 1000 nM. Moreover, the inhibition in vivo at 10 mg/kg in assay [1] (Experiment No. 2, 10 mg/kg p.o., QID, 7 days per week for 4 weeks) is 33.7%.
With `O=C(Cc1cc[n+]([O-])cc1)N1CCC(=C2c3ncc(Br)cc3CCc3cc(Cl)cc(Br)c32)CC1` [Example 7B], the IC50 is below 1600 nM in assay [5] (Homo sapiens, 336 h) and above 25000 nM in assay [6].
In the case of `NC(=O)N1CCC(CC(=O)N2CCC(=C3c4ncc(Br)cc4CCc4cc(Cl)cc(Br)c43)CC2)CC1` [Example 8A], the IC50 is above 1000 nM in assay [4] (setting [13]); below 1600 nM in assay [5] (Homo sapiens, 336 h); below 1600 nM in assay [7] (Homo sapiens, DLD-1, 336 h); 3100 nM in assay [2] (Homo sapiens, SW-620, 336 h); above 25000 nM in assay [6] (Homo sapiens, Fibroblast, 336 h).
Regarding `NC(=O)N1CCC(CC(=O)N2CCC(=C3c4ncc(Br)cc4CCc4cc(Cl)cc(Br)c43)CC2)CC1` [Example 8B], the IC50 in assay [4] (setting [13]) was 280 nM; in assay [5] it was below 1600 nM; in assay [7], below 1600 nM; in assay [2], 3100 nM; in assay [6], above 25000 nM. Moreover, the inhibition in vivo at 50 mg/kg in assay [1] (setting [8]) is 62.5%. Further, in assay [1] (setting [9]), the inhibition in vivo at 10 mg/kg was 29.2%.
For `O=C(Cc1cc[n+]([O-])cc1)N1CCC([C@@H]2c3ncc(Br)cc3CCc3cc(Cl)cc(Br)c32)CC1` [Example 9A], the IC50 in assay [3] was above 88 nM; in assay [4] (Primates, COS, Table 3, COS cells, read-out: Inhibition of Ras Processing IC50), 850 nM; in assay [5] (Homo sapiens, 336 h) it was below 1600 nM.
As for `O=C(Cc1cc[n+]([O-])cc1)N1CCC([C@H]2c3ncc(Br)cc3CCc3cc(Cl)cc(Br)c32)CC1` [Example 9], the inhibition in vivo at 50 mg/kg in assay [1] (setting [8]) was found to be 68%. Besides, the inhibition in vivo at 10 mg/kg in assay [1] (setting [9]) is 19%.
Turning to `O=C(Cc1cc[n+]([O-])cc1)N1CCN([C@H]2c3ncc(Br)cc3CCc3cc(Cl)cc(Br)c32)CC1` [Example 11A], in assay [1] ([…]), the inhibition in vivo at 10 mg/kg was found to be 44.8% and the inhibition in vivo at 50 mg/kg was 63.8%.
On the same counts, the results for `O=C(Cc1cc[n+]([O-])cc1)N1CCN([C@@H]2c3ncc(Br)cc3CCc3cc(Cl)cc(Br)c32)CC1` [Example 11B] are 17% and 38.8%.
`O=C(Cc1cc[n+]([O-])cc1)N1CCN(C2c3ncc(Br)cc3CCc3cc(Cl)cc(Br)c32)CC1` (centres unmarked) [Example 11]: the IC50 in assay [4] (setting [12]) is below 250 nM.
Take `NC(=O)N1CCC(CC(=O)N2CCC(C3c4ccc(Cl)c(Br)c4CCc4cc(Br)cnc43)CC2)CC1` (centres unmarked) [Example 13B]: the IC50 in assay [2] (Homo sapiens, SW-620, 336 h) was above 3100 nM.
Regarding `O=C(Cc1cc[n+]([O-])cc1)N1CCN([C@H]2c3ccc(Cl)cc3CCc3cc(Br)cnc32)CC1` [Example 16B], in assay [1] ([…]), the inhibition in vivo at 10 mg/kg was determined as 50% and the inhibition in vivo at 50 mg/kg was found to be 77%.
For `NC(=O)N1CCC(CC(=O)N2CCN([C@@H]3c4ccc(Cl)cc4CCc4cc(Br)cnc43)CC2)CC1` [Example 17], the IC50 in assay [2] (Homo sapiens, SW-620, 336 h) came out at 25000 nM.
